Measured values: US10604512B2, “3-(1H-indol-2-yl)-1H-indazoles and therapeutic uses thereof” (Samumed, LLC, priority 2015, dated 2020)

What was measured:
Assay type in all cases: cell-based
[1] = tested on: IL-6; assay: Inhibition of IL-6 in LPS-stimulated THP-1 human monocyte cells (HTRF); details: IL-6 inhibition, LPS-stimulated THP-1 cells, HTRF
Description: Human monocyte cell line (THP-1 cells; Catalog # TIB-202, ATCC, Manassas, Va.) were cultured in Roswell Park Memorial Institute (RPMI) 1640 Medium (Catalog #21870-100, Buffalo, N.Y.) with 1% L-glutamine, 1% HEPES, 1% Sodium Pyruvate, 2% Sodium Bicarbonate supplemented with 100 units/mL penicillin, 50 μg/mL streptomycin, 2-mercaptoethanol (0.05 mM) [basal medium] and 10% fetal bovine serum (Catalog #16140089, Life Technologies, Carlsbad, Calif.) at 37° C. and 5% CO2.
THP-1 cells were cultured in basal media with 1% FBS for 24 hours before the start of the assay. Each compound was dissolved in DMSO as a 10 mM stock and used to prepare compound source plates. Serial dilution (1:3, 10-point dose-response curves starting from 10 μM) and compound transfer was performed using the ECHO 550 (Labcyte, Sunnyvale, Calif.) into 384-well white low volume assay plates (Greiner Bio-One) with appropriate DMSO backfill for a final DMSO concentration of 0.1%. THP-1 cells were plated at 5000 cells/well in the 384-well plates and incubated at 37° C. for 2 h. 500 ng/mL of LPS was added after 2 hours and cells were incubated for another 22 hours at 37° C. Plates were spun in a centrifuge for 1 minute at […] and a mixture of anti-IL6 XL665, and anti-IL6 Cryptate diluted in reconstitution buffer (Cisbio Inc.) was added to each well. Following incubation for 3 hrs at room temperature, Homogeneous Time-Resolved Fluorescence (HTRF) was measured using the Envision (Perkin Elmer) at 665 nm and […]. The ratio of fluorescence at 665 nm to 620 nm was used as a readout for IL6 quantification. All samples were processed in duplicate. Readings were normalized to DMSO treated cells and normalized activities were utilized for EC50 calculations using the dose-response log (inhibitor) vs. response variable slope (four parameters) nonlinear regression feature available in GraphPad Prism 5.0 (or Dotmatics). For EC50 of >10 μM, the percent inhibition at 10 μM is provided.

[2] = tested on: SW480 colon cancer cells; assay: Cell viability assay (CellTiter-Blue) in SW480 colon cancer cells; details: Homo sapiens, 96 h, four days, CellTiter-Blue
Description: Representative compounds were screened using the following assay procedure to assess the effect on cell viability as described below.
Each compound was dissolved in DMSO as a 10 mM stock and used to prepare compound source plates. Serial dilution (1:3, 8-point dose-response curves from 10 μM to 0.0045 μM) and compound transfer was performed using the ECHO 550 (Labcyte, Sunnyvale, Calif.) into 96-well clear bottom, black-walled plates (Corning-Costar).
Approximately 2×10^3 SW480 colon cancer cells were seeded into each well and allowed to incubate in the presence or absence of compound for four days at 37° C./5% CO2. Eight replicates of DMSO-treated cells served as controls and cells treated with compound were performed in duplicate.
After incubation, 20 μL of CellTiter-Blue (Promega) was added to each well allowed to incubate for approximately 3 hours. This reagent was a buffered solution which contains resazurin, metabolically active cells were able to reduce rezarurin (blue) into resorufin (pink) which was highly fluorescent. This measured fluorescence was used as a readout for cell viability.
After incubation, the plates were read at Ex 560 nm Em 590 nm (Cytation 3, BioTek). Dose-response curves were generated and EC50 concentration values were calculated using non-linear regression curve fit in the GraphPad Prism (San Diego, Calif.) or Dotmatics' Studies Software (Bishops Stortford, UK). For EC50 of >10 μM, the percent inhibition at 10 μM is provided.

[3] = tested on: Primary human fibroblasts derived from IPF patients (LL29 cells) treated with TGF-β1; assay: Inhibition of the fibrotic process: αSMA staining in TGF-β1-treated primary human fibroblasts from IPF patients (LL29 cells); details: Fibroblast, 96 h, % αSMA-positive LL29 cells, TGF-β1 20 ng/mL, 4 days
Excerpt: Representative compounds were screened using primary human fibroblasts (derived from IPF patients) treated with TGF-β1 to determine their ability to inhibit the fibrotic process.
Primary human fibroblasts derived from IPF patients (LL29 cells) [^1Xiaoqiu Liu, et. al., “Fibrotic Lung Fibroblasts Show Blunted Inhibition by cAMP Due to Deficient cAMP Response Element-Binding Protein Phosphorylation”, Journal of Pharmacology and Experimental Therapeutics (2005), 315(2), 678-687; ^2Watts, K. L., et. al., “RhoA signaling modulates cyclin D1 expression in human lung fibroblasts; implications for idiopathic pulmonary fibrosis”, Respiratory Research (2006), 7(1), 88] were obtained from American Type Culture Collection (ATCC) and expanded in F12 medium supplemented with 15% Fetal Bovine Serum and Penicillin/Streptomycin.
Each compound was dissolved in DMSO as a 10 mM stock and used to prepare compound source plates. Serial dilution (1:2, 11-point dose-response curves from 10 μM to […]) and compound transfer was performed using the ECHO 550 (Labcyte, Sunnyvale, Calif.) into 384-well clear bottom assay plates (Greiner Bio-One) with appropriate DMSO backfill for a final DMSO concentration of 0.1%. LL29 cells are plated at 1,500 cells/well in 80 μL/well F12 medium supplemented with 1% Fetal Bovine Serum. One hour after addition of the cells, TGF-β1 (Peprotech; 20 ng/mL) was added to the plates to induce fibrosis (ref 1 and 2 above). Wells treated with TGF-β1 and containing DMSO were used as controls. Cells were incubated at 37° C. and 5% CO2 for 4 days. Following incubation for 4 days, SYTOX green nucleic acid stain (Life Technologies [Thermo Fisher Scientific]) was added to the wells at a final concentration of 1 μM and incubated at room temperature for 30 min. Cells were then fixed using 4% formaldehyde (Electron Microscopy Sciences), washed 3 times with PBS followed by blocking and permeabilization using 3% Bovine Serum Albumin (BSA; Sigma) and 0.3% Triton X-100 (Sigma) in PBS. Cells were then stained with antibody specific to α-smooth muscle actin (αSMA; Abcam) (ref 1 and 2 above) in 3% Bovine Serum Albumin (BSA; Sigma) and 0.3% Triton X-100 (Sigma) in PBS, and incubated overnight at 4° C. Cells were then washed 3 times with PBS, followed by incubation with Alexa Flor-647 conjugated secondary antibody (Life Technologies [Thermo Fisher Scientific]) and DAPI at room temperature for 1 hour. Cells were then washed 3 times with PBS and plates were sealed for imaging. αSMA staining was imaged by excitation at 630 nm and emission at 665 nm and quantified using the Compartmental Analysis program on the CellInsight CX5 (Thermo Scientific). Dead or apoptotic cells were excluded from analysis based on positive SYTOX green staining. % of total cells positive for αSMA were counted in each well and normalized to the average of 11 wells treated with TGF-β1 on the same plate using Dotmatics' Studies Software. The normalized averages (fold change over untreated) of 3 replicate wells for each compound concentration were used to create dose-responses curves and EC50 values were calculated using non-linear regression curve fit in the Dotmatics' Studies Software. For EC50 of >10 μM, the percent inhibition at 10 μM is provided.

[4] = tested on: Wnt activity (Sp5-Luc reporter, TCF/LEF binding sites) in SW480 colon carcinoma cells; assay: Screening assay for Wnt activity: Sp5-Luc reporter gene assay in stably transduced SW480 colon carcinoma cells; details: Homo sapiens, overnight incubation, 10-point curve from 10 μM
Excerpt: The screening assay for Wnt activity is described as follows. Reporter cell lines can be generated by stably transducing cancer cell lines (e.g., colon cancer) or primary cells (e.g., IEC-6 intestinal cells) with a lentiviral construct that includes a Wnt-responsive promoter driving expression of the firefly luciferase gene.
SW480 colon carcinoma cells were transduced with a lentiviral vector expressing luciferase with a human Sp5 promoter consisting of a sequence of eight TCF/LEF binding sites. SW480 cells stably expressing the Sp5-Luc reporter gene and a hygromycin resistance gene were selected by treatment with 150 μg/mL of hygromycin for 7 days. These stably transduced SW480 cells were expanded in cell culture and used for all further screening activities. Each compound was dissolved in DMSO as a 10 mM stock and used to prepare compound source plates. Serial dilution (1:3, 10-point dose-response curves starting from 10 μM) and compound transfer was performed using the ECHO 550 (Labcyte, Sunnyvale, Calif.) into 384-well white solid bottom assay plates (Greiner Bio-One) with appropriate DMSO backfill for a final DMSO concentration of 0.1%. For Sp5-Luc reporter gene assays, the cells were plated at 4,000 cells/well in 384-well plates with medium containing 1% fetal bovine serum and incubated overnight at 37° C. and 5% CO2. Following incubation, 20 μl of BrightGlo luminescence reagent (Promega) was added to each well of the 384-well assay plates. The plates were placed on an orbital shaker for 2 min and then luminescence was quantified using the Envision (Perkin Elmer) plate reader. Readings were normalized to DMSO only treated cells, and normalized activities were utilized for EC50 calculations using the dose-response log (inhibitor) vs. response variable slope (four parameters) nonlinear regression feature available in GraphPad Prism 5.0 (or Dotmatics). For EC50 of >10 μM, the percent inhibition at 10 μM is provided.

Row | SMILES | EC50 [1] [nM] | EC50 [2] [nM] | EC50 [4] [nM] | EC50 [3] [nM]
1 | O=C(Nc1cncc(-c2ccc3[nH]nc(-c4cc5c(-c6cccs6)cccc5[nH]4)c3c2)c1)C1CCCC1 [Compound 358, N-(5-(3-(4-(Thiophen-2-yl)-1H-indol-2-yl)-1H-indazol-5-yl)pyridin-3-yl) cyclopentanecarboxamide] | 732 | 1100 | 1230 | 21
2 | c1ccc(CNCc2cncc(-c3ccc4[nH]nc(-c5cc6c(-c7ccccn7)cccc6[nH]5)c4c3)c2)cc1 [Compound 164, N-Benzyl-1-(5-(3-(4-(pyridin-2-yl)-1H-indol-2-yl)-1H-indazol-5-yl)pyridin-3-yl)methanamine] | 214 | 2290 | 564 | 191
3 | O=C(Nc1cncc(-c2ccc3[nH]nc(-c4cc5c(-c6ccccn6)cccc5[nH]4)c3c2)c1)C1CCCC1 [Compound 162, N-(5-(3-(4-(Pyridin-2-yl)-1H-indol-2-yl)-1H-indazol-5-yl)pyridin-3-yl) cyclopentanecarboxamide] | 314 | 1740 | 360 | 266
4 | Cc1ccncc1-c1ccc2[nH]nc(-c3cc4c(N5CCCCC5)cccc4[nH]3)c2c1 [Compound 173, 5-(4-Methylpyridin-3-yl)-3-(4-(piperidin-1-yl)-1H-indol-2-yl)-1H-indazole] | 4310 | 1980 | 865 | 1780
5 | CC(C)C(=O)Nc1cncc(-c2ccc3[nH]nc(-c4cc5c(-c6ccccc6F)cccc5[nH]4)c3c2)c1 [Compound 65, N-(5-(3-(4-(2-Fluorophenyl)-1H-indol-2-yl)-1H-indazol-5-yl)pyridin-3-yl) isobutyramide] | 105 | 981 | 1160 | 305
6 | CN1CCN(c2cccc3[nH]c(-c4n[nH]c5ccc(-c6cncc(CN7CCC(F)(F)C7)c6)cc45)cc23)CC1 [Compound 250, 5-(5-((3,3-Difluoropyrrolidin-1-yl)methyl)pyridin-3-yl)-3-(4-(4-methylpiperazin-1-yl)-1H-indol-2-yl)-1H-indazole] | 99 | 743 | 291 | 364
7 | FC1(F)CCN(Cc2cncc(-c3ccc4[nH]nc(-c5cc6c(-c7cccs7)cccc6[nH]5)c4c3)c2)C1 [Compound 362, 5-(5-((3,3-Difluoropyrrolidin-1-yl)methyl)pyridin-3-yl)-3-(4-(thiophen-2-yl)-1H-indol-2-yl)-1H-indazole] | 370 | 3090 | 474 | 619
8 | Fc1ccccc1-c1cccc2[nH]c(-c3n[nH]c4ccc(-c5cncc(CN6CCC(F)(F)C6)c5)cc34)cc12 [Compound 82, 5-(5-((3,3-Difluoropyrrolidin-1-yl)methyl)pyridin-3-yl)-3-(4-(2-fluorophenyl)-1H-indol-2-yl)-1H-indazole] | 4300 | 5240 | 2980 | 2260

Second part, led by results:

Row | EC50 [1] [nM] | EC50 [2] [nM] | EC50 [4] [nM] | SMILES | EC50 [3] [nM]
9 | 6 | 89 | 69 | CN(C)CCNc1cc(F)cc(-c2cccc3[nH]c(-c4n[nH]c5ccc(-c6cnn(C)c6)cc45)cc23)c1 [Compound 808, N^1-(3-Fluoro-5-(2-(5-(1-methyl-1H-pyrazol-4-yl)-1H-indazol-3-yl)-1H-indol-4-yl)phenyl)-N^2,N^2-dimethylethane-1,2-diamine] | 88
10 | 244 | 640 | 263 | Cc1ccncc1-c1ccc2[nH]nc(-c3cc4c(-c5cc(F)cc(NCCN(C)C)c5)cccc4[nH]3)c2c1 [Compound 453, N^1-(3-Fluoro-5-(2-(5-(4-methylpyridin-3-yl)-1H-indazol-3-yl)-1H-indol-4-yl)phenyl)-N^2,N^2-dimethylethane-1,2-diamine] | 1760
11 | 354 | 767 | 422 | CN(C)CCNc1cc(F)cc(-c2cccc3[nH]c(-c4n[nH]c5ccc(-c6cncc(NC(=O)Cc7ccccc7)c6)cc45)cc23)c1 [Compound 458, N-(5-(3-(4-(3-((2-(Dimethylamino)ethyl)amino)-5-fluorophenyl)-1H-indol-2-yl)-1H-indazol-5-yl)pyridin-3-yl)-2-phenylacetamide] | 1010
